Reference: patent publication US11571423B2, “Small molecule modulators of human sting” (Curadev Pharma Limited, priority 2017, dated 2023)
Where two headings read alike, the source gives them in different places.

What was measured:
[1] = biological target: cynomolgus monkey STING protein (Macaca fascicularis, UniProt A0A2R3XZA6); test: Luciferase reporter assay, cynomolgus monkey STING overexpressed in HEK293T cells; format: cell-based
Description: 5×10^5 clonally selected HEK293T-hSTING-Luciferase cells were seeded in 384-well plates in growth medium and stimulated with novel compounds. After 20 hr of stimulation supernatant were removed and secretary reporter gene activity were measured using the Quanti-Luc detection system (Invivogen) on a Spectramax i3X luminometer.
In the tables below, EC50 value ranges for exemplary compounds are given.
Selected compounds were further tested against cynomolgus monkey STING protein overexpressed in HEK293T cells.

hSTING(R232) = hSTING(R232) (Homo sapiens, UniProt Q86WV6, H232R); test: Luciferase reporter assay in HEK293T-hSTING-Luciferase cells, R232 (wild type) human STING; format: cell-based; conditions: 20 hr stimulation, read-out: R232 human activity (EC50 range)
How it was run: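 Clonal HEK293T cells stably expressing STING from a pUNO-1 plasmid plus an ISRE/ISG54-driven secreted luciferase reporter; 5×10^5 cells stimulated with compound for 20 hr. Supernatant luciferase read by luminescence, giving fold-induction over baseline and EC50.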

[2] = cynomolgus monkey STING overexpressed in HEK293T cells, read-out: Cynomolgus monkey STING activity (EC50 range)

Chain of cynomolgus monkey STING protein (A0A2R3XZA6 entry or part of it): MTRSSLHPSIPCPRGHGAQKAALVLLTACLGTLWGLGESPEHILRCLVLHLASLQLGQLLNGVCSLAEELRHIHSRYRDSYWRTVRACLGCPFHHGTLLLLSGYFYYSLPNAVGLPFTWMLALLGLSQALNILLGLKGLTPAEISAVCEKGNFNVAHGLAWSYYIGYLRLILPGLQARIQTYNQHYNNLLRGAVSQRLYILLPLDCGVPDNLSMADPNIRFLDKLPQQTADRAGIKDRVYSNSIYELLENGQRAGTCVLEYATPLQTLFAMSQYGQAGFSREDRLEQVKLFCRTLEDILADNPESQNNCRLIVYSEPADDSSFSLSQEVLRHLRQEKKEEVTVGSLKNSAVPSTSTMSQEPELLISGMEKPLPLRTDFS
Chain of hSTING(R232) (Q86WV6 whole entry H232R): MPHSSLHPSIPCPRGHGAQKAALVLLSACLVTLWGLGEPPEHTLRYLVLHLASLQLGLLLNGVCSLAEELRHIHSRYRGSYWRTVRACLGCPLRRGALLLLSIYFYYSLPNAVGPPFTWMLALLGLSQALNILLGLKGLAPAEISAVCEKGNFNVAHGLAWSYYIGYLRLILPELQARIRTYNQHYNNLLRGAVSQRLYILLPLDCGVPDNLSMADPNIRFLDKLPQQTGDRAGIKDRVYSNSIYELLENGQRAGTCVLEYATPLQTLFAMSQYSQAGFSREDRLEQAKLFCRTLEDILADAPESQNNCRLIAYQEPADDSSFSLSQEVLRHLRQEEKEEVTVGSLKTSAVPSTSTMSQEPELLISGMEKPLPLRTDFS

SMILES | EC50 [1, 2] | EC50 (hSTING(R232)) | EC50 [1]
COc1ccc(F)c(CN2C(=O)N(C)C(C)c3ccc(C(=O)NCc4c(F)cc(F)cc4F)cc32)c1 (stereo not shown) [Example 166, 1-(2-fluoro-5-methoxybenzyl)-3,4-dimethyl-2-oxo-N-(2,4,6-trifluorobenzyl)-1,2,3,4-tetrahydroquinazoline-7-carboxamide] | 1000 to 10000 nM | < 1000 nM | –
C[C@H]1c2ccc(C(=O)NCc3c(F)cc(F)cc3F)cc2N(Cc2c(F)ccc(OCCOP(=O)(O)O)c2F)C(=O)N1C [Example 103, (S)-2-(3-((3,4-dimethyl-2-oxo-7-((2,4,6-trifluorobenzyl)carbamoyl)-3,4-dihydroquinazolin-1(2H)-yl)methyl)-2,4-difluorophenoxy)ethyl dihydrogen phosphate] | < 1000 nM | < 1000 nM | –
C[C@H]1c2ccc(C(=O)NCc3c(F)cc(F)cc3F)cc2N(Cc2c(O)cc(F)cc2F)C(=O)N1C [Example 260, (S)-1-(2,4-difluoro-6-hydroxybenzyl)-3,4-dimethyl-2-oxo-N-(2,4,6-trifluorobenzyl)-1,2,3,4-tetrahydroquinazoline-7-carboxamide] | < 1000 nM | < 1000 nM | –
C[C@H]1c2ccc(C(=O)NCc3c(F)cc(F)cc3F)cc2N(Cc2c(F)cc(OC(=O)N(C)CCC(=O)OCc3ccccc3)cc2F)C(=O)N1C [Example 86, (S)-Benzyl-3-(((4-((3,4-dimethyl-2-oxo-7-((2,4,6-trifluorobenzyl)carbamoyl)-3,4-dihydroquinazolin-1(2H)-yl)methyl)-3,5-difluorophenoxy)carbonyl)(methyl)amino)propanoate] | – | 1000 to 10000 nM | 1000 to 10000 nM
C[C@H]1c2ccc(C(=O)NCc3c(F)cc(F)cc3F)cc2N(Cc2c(F)ccc(OCCO)c2F)C(=O)N1C [Example 256, (S)-1-(2,6-difluoro-3-(2-hydroxyethoxy)benzyl)-3,4-dimethyl-2-oxo-N-(2,4,6-trifluorobenzyl)-1,2,3,4-tetrahydroquinazoline-7-carboxamide] | 1000 to 10000 nM | < 1000 nM | –
CC(=O)Nc1ccc(COC(=O)Oc2ccc(F)c(CN3C(=O)N(C)[C@@H](C)c4ccc(C(=O)NCc5c(F)cc(F)cc5F)cc43)c2Cl)cc1 [Example 139, (S)-4-Acetamidobenzyl-(2-chloro-3-((3,4-dimethyl-2-oxo-7-((2,4,6-trifluorobenzyl)carbamoyl)-3,4-dihydroquinazolin-1(2H)-yl)methyl)-4-fluorophenyl) carbonate] | < 1000 nM | < 1000 nM | –
Cc1cccc(CN2C(=O)N(C)C(C)c3ccc(C(=O)NCc4c(F)cc(F)cc4F)cc32)c1F (stereo not shown) [Example 164, 1-(2-fluoro-3-methylbenzyl)-3,4-dimethyl-2-oxo-N-(2,4,6-trifluorobenzyl)-1,2,3,4-tetrahydroquinazoline-7-carboxamide] | < 1000 nM | < 1000 nM | –
COc1cc(F)c(CNC(=O)c2ccc3c(c2)N(Cc2c(F)cc(OC)cc2F)C(=O)N(C)[C@H]3C)c(F)c1 [Example 149, (S)—N,1-bis(2,6-difluoro-4-methoxybenzyl)-3,4-dimethyl-2-oxo-1,2,3,4-tetrahydroquinazoline-7-carboxamide] | < 1000 nM | < 1000 nM | –
COc1ccc(F)c(CN2C(=O)N(C)[C@@H](C)c3ccc(C(=O)NCc4c(F)cc(F)cc4F)cc32)c1F [Example 258, (S)-1-(2,6-difluoro-3-methoxybenzyl)-3,4-dimethyl-2-oxo-N-(2,4,6-trifluorobenzyl)-1,2,3,4-tetrahydroquinazoline-7-carboxamide] | < 1000 nM | < 1000 nM | –
C[C@H]1c2ccc(C(=O)NCc3c(F)cc(F)cc3F)cc2N(Cc2c(F)cc(F)cc2OCCCOP(=O)(O)O)C(=O)N1C [Example 94, (S)-3-(2-((3,4-dimethyl-2-oxo-7-((2,4,6-trifluorobenzyl)carbamoyl)-3,4-dihydroquinazolin-1(2H)-yl)methyl)-3,5-difluorophenoxy)propyl dihydrogen phosphate] | > 10000 nM | < 1000 nM | –
C[C@H]1c2ccc(C(=O)NCc3c(F)cc(F)cc3F)cc2N(Cc2c(F)ccc(OP(=O)(O)O)c2Cl)C(=O)N1C [Example 89, (S)-2-Chloro-3-((3,4-dimethyl-2-oxo-7-((2,4,6-trifluorobenzyl)carbamoyl)-3,4-dihydroquinazolin-1(2H)-yl)methyl-4-fluorophenyldihydrogen phosphate] | < 1000 nM | < 1000 nM | –
CC1c2ccc(C(=O)NCc3c(F)cc(F)cc3F)cc2N(Cc2cc(O)ccc2F)C(=O)N1C (stereo not shown) [Example 231, 1-(2-fluoro-5-hydroxybenzyl)-3,4-dimethyl-2-oxo-N-(2,4,6-trifluorobenzyl)-1,2,3,4-tetrahydroquinazoline-7-carboxamide] | < 1000 nM | < 1000 nM | –
CN1Cc2ccc(C(=O)NCc3cc4cc(N)ccc4o3)cc2N(Cc2c(F)cccc2Cl)C1=O [Example 58, N-((5-aminobenzofuran-2-yl)methyl)-1-(2-chloro-6-fluorobenzyl)-3-methyl-2-oxo-1,2,3,4-tetrahydroquinazoline-7-carboxamide] | – | > 10000 nM | –
CC1c2ccc(C(=O)NCc3c(F)cc(F)cc3F)cc2N(Cc2ccccc2)C(=O)N1C (stereo not shown) [Example 191, 1-benzyl-3,4-dimethyl-2-oxo-N-(2,4,6-trifluorobenzyl)-1,2,3,4-tetrahydroquinazoline-7-carboxamide] | – | < 1000 nM | –
Cc1cc(CN2C(=O)N(C)C(C)c3ccc(C(=O)NCc4c(F)cc(F)cc4F)cc32)on1 (stereo not shown) [Example 199, 3,4-dimethyl-1-((3-methylisoxazol-5-yl)methyl)-2-oxo-N-(2,4,6-triflurobenzyl)-1,2,3,4-tetrahydroquinazoline-7-carboxamide] | – | > 10000 nM | –
O=C(NCc1c(F)cc(F)cc1F)c1ccc2c(c1)N(Cc1c(F)cccc1Cl)C(=O)N(OCc1ccccc1)C2 [Example 68, 3-(benzyloxy)-1-(2-chloro-6-fluorobenzyl)-2-oxo-N-(2,4,6-trifluorobenzyl)-1,2,3,4-tetrahydroquinazoline-7-carboxamide] | – | > 10000 nM | –
C[C@H]1c2ccc(C(=O)NCc3cccc(OCCO)c3F)cc2N(Cc2c(F)cccc2Cl)C(=O)N1C [Example 276, (S)-1-(2-chloro-6-fluorobenzyl)-N-(2-fluoro-3-(2-hydroxyethoxy)benzyl)-3,4-dimethyl-2-oxo-1,2,3,4-tetrahydroquinazoline-7-carboxamide] | – | > 10000 nM | –
CC1c2ccc(C(=O)NCc3c(F)cc(F)cc3F)cc2N(Cc2ccc(O)cc2F)C(=O)N1C (stereo not shown) [Example 181, 1-(2-fluoro-4-hydroxybenzyl)-3,4-dimethyl-2-oxo-N-(2,4,6-trifluorobenzyl)-1,2,3,4-tetrahydroquinazoline-7-carboxamide] | – | < 1000 nM | –
CON1Cc2ccc(C(=O)NCc3c(F)cc(F)cc3F)cc2N(Cc2c(F)cccc2Cl)C1=O [Example 49, 1-(2-chloro-6-fluorobenzyl)-3-methoxy-2-oxo-N-(2,4,6-trifluorobenzyl)-1,2,3,4-tetrahydroquinazoline-7-carboxamide] | – | 1000 to 10000 nM | –
Cc1cc(CN2C(=O)N(C)Cc3ccc(C(=O)NCc4c(F)cc(F)cc4F)cc32)no1 [Example 33, 3-methyl-1-((5-methylisoxazol-3-yl)methyl)-2-oxo-N-(2,4,6-trifluorobenzyl)-1,2,3,4-tetrahydroquinazoline-7-carboxamide] | – | 1000 to 10000 nM | –
Cc1ccc(F)c(CN2C(=O)N(C)C(C)c3ccc(C(=O)NCc4c(F)cc(F)cc4F)cc32)c1Br (stereo not shown) [Example 220, 1-(2-bromo-6-fluoro-3-methylbenzyl)-3,4-dimethyl-2-oxo-N-(2,4,6-trifluorobenzyl)-1,2,3,4-tetrahydroquinazoline-7-carboxamide] | – | < 1000 nM | –
CC1c2ccc(C(=O)NCc3c(F)cc(F)cc3F)cc2N(Cc2c(N)cccc2F)C(=O)N1C (stereo not shown) [Example 173, 1-(2-amino-6-fluorobenzyl)-3,4-dimethyl-2-oxo-N-(2,4,6-trifluorobenzyl)-1,2,3,4-tetrahydroquinazoline-7-carboxamide] | – | < 1000 nM | –
CC1c2ccc(C(=O)NCc3c(F)cc(F)cc3F)cc2N(Cc2c(F)cccc2OC(F)F)C(=O)N1C (stereo not shown) [Example 216, 1-(2-(difluoromethoxy)-6-fluorobenzyl)-3,4-dimethyl-2-oxo-N-(2,4,6-trifluorobenzyl)-1,2,3,4-tetrahydroquinazoline-7-carboxamide] | – | < 1000 nM | –
CC1c2ccc(C(=O)NCc3c(F)cc(F)cc3F)cc2N(Cc2cc(F)cc(F)c2)C(=O)N1C (stereo not shown) [Example 157, 1-(3,5-difluorobenzyl)-3,4-dimethyl-2-oxo-N-(2,4,6-trifluorobenzyl)-1,2,3,4-tetrahydroquinazoline-7-carboxamide] | – | < 1000 nM | –
Cc1ccc(Cl)c(CN2C(=O)N(C)Cc3ccc(C(=O)NCc4c(F)cc(F)cc4F)cc32)c1F [Example 66, 1-(6-chloro-2-fluoro-3-methylbenzyl)-3-methyl-2-oxo-N-(2,4,6-trifluorobenzyl)-1,2,3,4-tetrahydroquinazoline-7-carboxamide] | – | < 1000 nM | –
CN1Cc2ccc(C(=O)NCCn3cncn3)cc2N(Cc2c(F)cccc2Cl)C1=O [Example 26, N-(2-(1H-1,2,4-triazol-l-yl)ethyl)-1-(2-chloro-6-fluorobenzyl)-3-methyl-2-oxo-1,2,3,4-tetrahydroquinazoline-7-carboxamide] | – | > 10000 nM | –
C[C@H]1c2ccc(C(=O)NCc3c(F)cc(F)cc3F)cc2N(Cc2c(F)ccc(C(=O)NCCO)c2F)C(=O)N1C [Example 143] | – | < 1000 nM | –
CC1NC(=O)N(Cc2c(F)cccc2Cl)c2cc(C(=O)NCc3c(F)cc(F)cc3F)ccc21 (stereo not shown) [Example 189, 1-(2-chloro-6-fluorobenzyl)-4-methyl-2-oxo-N-(2,4,6-trifluorobenzyl)-1,2,3,4-tetrahydroquinazoline-7-carboxamide] | – | 1000 to 10000 nM | –
